Experimental data published in patent publication US8663647B2, “Epitope peptides derived from vascular endothelial growth factor receptor 1 and vaccines containing these peptides” (Oncotherapy Science, Inc., priority 2005, dated 2014).
“Also recorded” adds a separate entry of the source.

Tests used:
[1] = system: angiogenesis induced by MC38 cells; assay: Dorsal air sac (DAS) in vivo angiogenesis assay; parameters: species or system A2/Kb transgenic mice; details: vaccinated twice with IFA-conjugated peptide, MC38 chamber, semiquantitative
Text: We examined the effects of peptide vaccination using dorsal air sac (DAS) assay which was designed to measure in vivo angiogenesis induced by tumor cells as previously described (Oikawa et al., (1997) Anticancer Res. 17: 1881-6). In brief, the A2/Kb TGM were vaccinated twice with 1-week interval in the left flank using IFA conjugated corresponding peptides as previously described with some modification (Schuler et al., (1997) J. Exp. Med. 186: 1183-7, Song et al., (1997) J. Exp. Med. 186: 1247-56, Specht et al., (1997) J. Exp. Med. 186: 1213-21). Millipore chamber (Millipore Corporation, Bedford, Mass.) was filled with PBS containing MC38 cells (1×10^6 cells) and implanted in the dorsum of anesthetized mice on day 0. The implanted chambers were removed from s.c. fascia on day 6 and then black rings were placed at the sites exposed to a direct contact with the chamber. The angiogenic response was assessed with photographs taken using a dissecting microscope. The extent of angiogenesis was determined with the number of newly formed blood vessels of >3 mm in length and scored semi quantitatively using an index ranging from 0 (none) to 5 (many).

[2] = system: MCA205 cells; assay: In vivo anti-tumor effects, therapeutic model; parameters: species or system A2/Kb transgenic mice; details: MCA205 i.d. day 0; vaccination with IFA-conjugated peptide after tumor challenge
Protocol: We examined the anti-tumor effects of this vaccination with a therapeutic model. The 1×10^5 MCA205 cells or the 5×10^5 B16 cells were injected i.d. in the right flank on day 0, and vaccination was performed on day 4 and day 14 using IFA conjugated corresponding peptides. […] The MCA205, a methylcholanthrene-induced murine fibrosarcoma cell line were injected i.d. into A2/Kb TGM on day 0, and vaccination was performed on these mice on 4 and 14 days after the tumor challenge using VEGFR1-1087, -770, -417 peptides conjugated with IFA (FIG. 6).

[3] = system: T2 cells and A24-LCL pulsed with candidate peptides; assay: CTL induction with peptide-pulsed DCs and 4-h 51Cr-release cytotoxicity assay on peptide-pulsed target cells; format: cell-based; details: human PBMC-derived DCs pulsed with peptide, autologous CD8+ T cells
Text: Monocyte-derived dendritic cells (DCs) were used to induce CTL responses against peptides presented on HLA as previously described (Nukaya et al., (1999) Int. J. Cancer. 80: 92-7, Tsai et al., (1997) J. Immunol. 158: 1796-802, Nakahara et al., (2003) Cancer Res. 63: 4112-8). In brief, the PBMCs were obtained from the healthy volunteers with corresponding HLAs and cultured in the presence of GM-CSF (provided by Kirin Brewery Company, Japan) and IL-4 (Genzyme/Techne, Minneapolis). After culture for 5 days, OK-432 (Chugai Pharmaceutical Corporation, Japan) was added to the culture to obtain mature DCs (Nakahara et al., (2003) Cancer Res. 63: 4112-8). On day 7, generated mature DCs were pulsed with each peptide for T cell stimulation. Using these peptide-pulsed DCs each time, the autologous CD8+ T cells were stimulated for three times on day 0, 7 and 14, and then the resultant lymphoid cells were tested for their cytotoxic activities on day 21. To generate CTL clones, established CTL lines were plated in 96-well plates at 0.3, 1, and 3 cells per well with allogenic PBMCs and […] as stimulator cells. Cytotoxic activities of resulting CTL clones were tested on the 14th day. Cytotoxic activities were measured using a standard 4-h ^51Cr-release assay. The T2 cells and A24-LCL were used as target cells pulsed with candidate peptides. Percent specific lysis was calculated as follows: % Specific lysis=[(experimental release−spontaneous release)/(maximum release−spontaneous release)]×100. Immunogenicity of Epitope Peptides in A2/Kb TGM

[4] = system: IFN-γ production of CTLs against T2 cells pulsed with peptides; assay: IFN-γ ELISPOT assay, immunogenicity of epitope peptides in A2/Kb TGM; format: in vivo, A2/Kb transgenic mice; details: IFA-conjugated peptide injected day 0 and day 11; splenocytes day 21; E/T ratio x20
Protocol: For priming the peptide-specific CTLs, immunization was given using 200 μl of vaccine mixture, which contains 100 μg of an HLA-A2 restricted peptide and 100 μl of IFA per mouse. The vaccine was injected intradermally in the right flank for the first immunization on day 0 and in the other flank for the second on day 11. On day 21, splenocytes of the vaccinated mice were used as the responder cells, and T2 cells pulsed with or without peptides were used as the stimulator cells for ELISPOT assay.
At first, we evaluated the immunogenicity of the epitope peptides for A2/Kb TGM to examine the specific production of IFN-γ of the CTLs induced with these peptides by ELISPOT assay (FIG. 4). IFA-conjugated peptide was injected s.c. into A2/Kb TGM on day 0 and day 11. On day 21, splenocytes of the vaccinated mice were harvested and used as the responder cells, and T2 cells pulsed with or without peptides were used as the stimulator cells for ELISPOT assay. […] In this ELISPOT assay using A2/Kb TGM system, positive results were shown for the epitope peptides identified using human PBMCs.

Sequence: VLLWEIFSL (synthetic vascular endothelial growth factor receptor 1 (VEGFR1, Flt-1) epitope peptide binding HLA-A*0201 with high cytotoxic T lymphocyte (CTL) inducibility) [SEQ ID NO: 1]
- Inhibition of tumor-induced angiogenesis (newly formed vessels) ([1]; listed as VEGFR1-1087): significant inhibition on angiogenesis was observed; also recorded: Significant inhibition of tumor-induced angiogenesis was observed
- Suppression of tumor growth [2]: Significant suppression of tumor growth was observed
- CTL inducibility [3]: particularly high CTL inducibility
- Specific production of IFN-γ for the corresponding peptide [4]: Specific production of IFN-γ for the corresponding peptide was observed

Sequence: TLFWLLLTL (synthetic vascular endothelial growth factor receptor 1 (VEGFR1, Flt-1) epitope peptide binding HLA-A*0201 with high cytotoxic T lymphocyte (CTL) inducibility) [SEQ ID NO: 2]
- Inhibition of tumor-induced angiogenesis (newly formed vessels) ([1]; listed as VEGFR1-770): significant inhibition on angiogenesis was observed; also recorded: Significant inhibition of tumor-induced angiogenesis was observed
- Suppression of tumor growth [2]: Significant suppression of tumor growth was observed
- CTL inducibility [3]: particularly high CTL inducibility
- Specific production of IFN-γ for the corresponding peptide [4]: Specific production of IFN-γ for the corresponding peptide was observed

Sequence: SYGVLLWEIF (synthetic vascular endothelial growth factor receptor 1 (VEGFR1, Flt-1) epitope peptide binding HLA-A*2402 with high cytotoxic T lymphocyte (CTL) inducibility) [SEQ ID NO: 32]
- CTL inducibility [3]: particularly high CTL inducibility

Sequence: NLTATLIVNV (synthetic vascular endothelial growth factor receptor 1 (VEGFR1, Flt-1) epitope peptide binding HLA-A*0201 with high cytotoxic T lymphocyte (CTL) inducibility) [SEQ ID NO: 13]
- Inhibition of tumor-induced angiogenesis (newly formed vessels) ([1]; listed as VEGFR1-417): significant inhibition on angiogenesis was observed; also recorded: Significant inhibition of tumor-induced angiogenesis was observed
- CTL inducibility [3]: particularly high CTL inducibility
- Specific production of IFN-γ for the corresponding peptide [4]: Specific production of IFN-γ for the corresponding peptide was observed
